# Test results from patent US11744899B2, “Pharmaceutical composition containing a hyaluronic acid derivative” (SEIKAGAKU CORPORATION, priority 2018, dated 2023).
# Key:
# [1] = Storage test (1-1) using 50 mM phosphate buffer solution (pH 6.5); assay type: physicochemical; settings: additional component 5 wt %; 1.0 wt % hyaluronic acid derivative, 50 mM phosphate buffer pH 6.5, 1 week at 60° C., HPLC; control solution = 1
# Procedure: (§1) 1.5 g of the hyaluronic acid derivative of the above Synthesis Example and 98.5 g of each of the various buffer solutions prepared above were mixed and stirred for 2 hours in a water bath at 70° C., whereby a 1.5 wt % hyaluronic acid derivative solution was prepared.
# (§2) Additional component aqueous solutions to be added to the hyaluronic acid derivative solution were prepared using various additional components and WFI so that the concentration of each component is three times as high as the final concentration (wt %).
# (§3) 2.0 g of the 1.5 wt % hyaluronic acid derivative solution prepared above and 1.0 g of the additional component aqueous solution were mixed, whereby a test sample (final concentration of hyaluronic acid derivative: 1.0 wt %) was prepared.
# (§4) The test samples prepared above containing each of the various buffer solutions (50 mM phosphate buffer solution, 10 mM citrate buffer solution, 10 mM acetate buffer solution, or 30 mM acetate buffer solution) were subjected to a storage test.
# (§5) Each of the test samples was stored for 1 week in a thermostat chamber at 60° C., and thereafter, the accumulation amount of each of diclofenac and diclofenac lactam was measured by HPLC.
# (§6) The amount of diclofenac and the amount of diclofenac lactam were calculated as relative values when each of the amount of diclofenac and the amount of diclofenac lactam present in the control solution (1 wt % hyaluronic acid derivative solution) after being stored for 1 week at 60° C. was assumed to be 1.
# (§7) Each of the prepared various test samples was filled in a screw vial (AS ONE Corporation, Cat No. 3-1599-01) and left to stand at 60° C. for 1 week. The amount of diclofenac and the amount of diclofenac lactam present in the solution after being left to stand were quantitatively analyzed by HPLC.
# (§8) The HPLC conditions are as follows.
# (§9) The elution time of each of diclofenac and diclofenac lactam was determined by performing measurement in advance using a standard substance.
# [2] = Storage test (1-2) using 10 mM citrate buffer solution (pH 5.1); assay type: physicochemical; settings: after storage, 1.0 wt % hyaluronic acid derivative, 10 mM citrate buffer pH 5.1, 1 week at 60° C.
# Procedure: A citric acid aqueous solution having a citric acid concentration of 15 mM and a trisodium citrate aqueous solution having a citrate concentration of 15 mM were mixed at a ratio (volume ratio) of 27:37, whereby a citrate buffer solution was prepared. The pH of the citrate buffer solution after preparation was 5.1.
# as §1, §2, §3, §4, §5, §6, §7, §8, §9
# As the additional component, creatinine (1 wt %), sodium deoxycholate (5 wt %), 1,2,3-butanetriol (5 wt %), PEG 400 (6.3 wt % or 16.5 wt %), PEG 600 (10 wt %), PEG 4000 (10 wt %), PEG 6000 (10 wt %), SDS (5 wt %), Triton X-100 (5 wt %), ethanol (26 wt %), octyl glucoside (5 wt %), glucuronolactone (0.1 wt %), chlorogenic acid (0.1 wt %), propylene glycol (10 wt %), polysorbate 20 (5 wt %), or polyvinylpyrrolidone (5 wt %) was used.
# Similarly, as the additional component, additional components of a two-component system of PEG 3350 (10.6 wt %) and polysorbate 80 (3 wt %), or PEG 3350 (6.0 wt %) and hydroxypropyl-β-cyclodextrin (10 wt %), or additional components of a three-component system of PEG 3350 (5.5 wt %), polysorbate 80 (1 wt %) and hydroxypropyl-β-cyclodextrin (10 wt %) were used.
# Cox-2 = target: T1, Cox-2 (Homo sapiens, UniProt P35354); experiment: Cox-2 inhibitory activity; assay type: biochemical; settings: ratio to diclofenac
# T1 sequence (P35354 18-604): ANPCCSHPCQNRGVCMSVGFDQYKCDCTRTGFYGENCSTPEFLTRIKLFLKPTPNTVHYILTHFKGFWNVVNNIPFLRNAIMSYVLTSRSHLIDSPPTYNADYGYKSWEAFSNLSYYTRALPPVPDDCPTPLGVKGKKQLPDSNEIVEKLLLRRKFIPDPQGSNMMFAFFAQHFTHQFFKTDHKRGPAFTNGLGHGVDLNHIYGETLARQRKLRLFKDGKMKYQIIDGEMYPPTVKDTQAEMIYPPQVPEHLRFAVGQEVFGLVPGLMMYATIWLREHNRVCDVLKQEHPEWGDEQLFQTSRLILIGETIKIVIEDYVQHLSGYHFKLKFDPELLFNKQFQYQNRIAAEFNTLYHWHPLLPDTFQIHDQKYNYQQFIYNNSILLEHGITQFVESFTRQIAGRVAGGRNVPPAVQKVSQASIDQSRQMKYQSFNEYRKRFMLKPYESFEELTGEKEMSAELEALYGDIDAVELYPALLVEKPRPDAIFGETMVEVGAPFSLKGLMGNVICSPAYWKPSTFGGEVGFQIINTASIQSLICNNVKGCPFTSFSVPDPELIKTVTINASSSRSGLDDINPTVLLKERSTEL
# [3] = Evaluation of filterability of aqueous composition (Vmax); assay type: physicochemical; settings: 1.0 wt % hyaluronic acid derivative, acetate buffer pH 5.1, 0.22 μm PVDF membrane, 0.6 MPa, 70° C.
# Procedure: The calculation of the maximum treatment amount (Vmax) is more specifically performed as follows. That is, the aqueous composition at a liquid temperature of 70° C. is filtered under a pressure of 0.6 MPa using a polyvinylidene fluoride filtration membrane with a pore size of 0.22 μm. At that time, the total filtration amount per effective filtration area (V) of the filtration membrane is measured every 30 seconds until the flow rate (Q) becomes 1/10 or less of the flow rate at the start of filtration. By plotting the measurement results with the filtration time (t) along the horizontal axis and t/V along the vertical axis, the following formula A is calculated within a range of the measurement point where the transition of t/V is stable. The maximum treatment amount (Vmax) is determined from the reciprocal of the slope a of the calculation formula A (that is, the following calculation formula B). Note that the flow rate (Q) is the filtration amount per unit time (that is, Q=dV/dt).
# The hyaluronic acid derivative prepared above and the 15 mM acetate buffer solution (pH 5.1) prepared above were mixed and stirred, and then, defoamed by being left to stand, whereby a 1.5 wt % hyaluronic acid derivative solution was prepared.
# 150.0 g of the 1.5 wt % hyaluronic acid derivative solution prepared above and 75.0 g of an additional component aqueous solution were mixed, whereby a test sample (final concentration of hyaluronic acid derivative: 1.0 wt %) was prepared.
# In addition, a control solution in which 75.0 g of WFI was mixed in place of the additional component aqueous solution was also prepared.
# To a stainless steel pressure filter holder in which a polyvinylidene fluoride (PVDF) membrane (47 mm in diameter, effective filtration area: 13.8 cm^2, manufactured by Merck & Co.) with a pore size of 0.22 μm was set, 200 mL of the test sample prepared above was added and pressure was applied at 0.6 MPa at 70° C. The amount of liquid passing through the filter was weighed every 30 seconds, and the maximum treatment amount (Vmax) was calculated from the relationship between the elapsed time and the total filtration amount.
# [4] = Storage test (1-4) using 10 mM acetate buffer solution (pH 5.1); assay type: physicochemical; settings: additional component 5 wt %; 1.0 wt % hyaluronic acid derivative, 10 mM acetate buffer pH 5.1, 1 week at 60° C., HPLC; control solution = 1
# Procedure: An acetic acid aqueous solution having an acetic acid concentration of 15 mM and a sodium acetate aqueous solution having an acetate concentration of 15 mM were mixed at a ratio (volume ratio) of 1:3, whereby an acetate buffer solution was prepared. The pH of the acetate buffer solution after preparation was 5.1. In addition, an acetate buffer solution having an acetic acid concentration of 45 mM and a pH of 5.1 was prepared in a similar manner. […]
# as §5, §6
# Each of the prepared various test samples was filled in a screw vial (AS ONE Corporation, Cat No. 3-1599-01) and left to stand at 60° C. for 1 week. The amount of diclofenac and the amount of diclofenac lactam present in the solution after being left to stand were quantitatively analyzed by HPLC. […]
# as §9
# [5] = Storage test (1-3) using 30 mM acetate buffer solution (pH 5.1); assay type: physicochemical; settings: 1.0 wt % hyaluronic acid derivative, 30 mM acetate buffer pH 5.1, 1 week at 60° C., HPLC, control solution = 1
# Procedure: An acetic acid aqueous solution having an acetic acid concentration of 15 mM and a sodium acetate aqueous solution having an acetate concentration of 15 mM were mixed at a ratio (volume ratio) of 1:3, whereby an acetate buffer solution was prepared. The pH of the acetate buffer solution after preparation was 5.1. In addition, an acetate buffer solution having an acetic acid concentration of 45 mM and a pH of 5.1 was prepared in a similar manner.
# as §1, §2, §3, §4, §5, §6, §7, §8, §9
# As the additional component, propyl gallate (1.5 wt %), any one of lactic acid anhydrous (1.5 wt %), hydroxypropyl cellulose (1.5 wt %), starch (1.5 wt %), dextran (5 wt %), sucrose (5 wt %), sodium saccharinate dihydrate (5 wt %), glycine (5 wt %), sodium aspartate (1.5 wt %), L-leucine (1.5 wt %), L-phenylalanine (5 wt %), L-serine (5 wt %), D-mannitol (1.5 wt %), D-sorbitol (5 wt %), hydroxypropyl-β-cyclodextrin (3 wt %, 5 wt %, 10 wt %, or 15 wt %), and ethanol (5 wt %, 10 wt %, 20 wt %, or 26.3 wt %) was used.
compound,measurement,setting,value
OC[C@H]1OC=C[C@@H](O)[C@@H]1O [D-glucal],Dic amount: the relative value of the amount of diclofenac,[1],1.15
"CCCCCCCCCCCCOS(=O)(=O)[O-].[Na+] [SDS, sodium dodecyl sulfate]",Solution properties,[2]; additional component 5 wt %,colorless and clear
COc1ccc(O)c(C(C)(C)C)c1 [butylhydroxyanisole],Dic amount: the relative value of the amount of diclofenac,[1],0.99
O=C(/C=C/c1ccc(O)c(O)c1)O[C@@H]1C[C@](O)(C(=O)O)C[C@@H](O)[C@H]1O [chlorogenic acid],Solution properties,[2]; additional component 0.1 wt %,light yellow and clear
O=C1Cc2ccccc2N1c1c(Cl)cccc1Cl [diclofenac lactam],Cox-2 inhibitory activity relative to that of diclofenac,Cox-2,about 1/100
CCO [ethanol],Solution properties,[2]; additional component 26 wt %,colorless and clear
same,Maximum treatment amount,[3]; additional component 5 wt %,10.3 g/cm^2
same,Maximum treatment amount,[3]; additional component 10 wt %,8.2 g/cm^2
O=C[C@H](O)[C@H]1OC(=O)[C@@H](O)[C@H]1O [glucuronolactone],Solution properties,[2]; additional component 0.1 wt %,slightly yellow and clear
OCC(O)CO [glycerin],Dic amount: the relative value of the amount of diclofenac,[1],1.02
CCCCCCCCO[C@@H]1O[C@H](CO)[C@@H](O)[C@H](O)[C@H]1O [octyl glucoside],Solution properties,[2]; additional component 5 wt %,colorless and clear
CC(O)CO (centres unmarked) [propylene glycol],Solution properties,[2]; additional component 10 wt %,colorless and slightly turbid
hydroxyethyl-β-cyclodextrin [HE-β-CD],Dic amount: the relative value of the amount of diclofenac,[4],0.63
same,Lac amount: the relative value of the amount of diclofenac lactam,[4],0.34
hydroxypropyl-β-cyclodextrin [HP-β-CD],Maximum treatment amount,[3]; additional component 5 wt %,8.3 g/cm^2
same,Maximum treatment amount,[3]; additional component 10 wt %,10.4 g/cm^2
same,Dic amount: the relative value of the amount of diclofenac,[5]; additional component 3 wt %,0.62
same,Lac amount: the relative value of the amount of diclofenac lactam,[5]; additional component 3 wt %,0.45
same,Dic amount: the relative value of the amount of diclofenac,[5]; additional component 5 wt %,0.54
same,Lac amount: the relative value of the amount of diclofenac lactam,[5]; additional component 5 wt %,0.34
same,Dic amount: the relative value of the amount of diclofenac,[5]; additional component 10 wt %,0.44
same,Lac amount: the relative value of the amount of diclofenac lactam,[5]; additional component 10 wt %,0.23
same,Dic amount: the relative value of the amount of diclofenac,[5]; additional component 15 wt %,0.36
same,Lac amount: the relative value of the amount of diclofenac lactam,[5]; additional component 15 wt %,0.17
octylphenol ethoxylate [Triton X-100],Solution properties,[2]; additional component 5 wt %,colorless and clear
polysorbate 20,Solution properties,[2]; additional component 5 wt %,colorless and clear
